According to US20080064027A1, “TEL/Etv6-mediated inhibition of cell proliferation” (priority 2002, published 2008):
Several values for one entry are separate records, joined by “and”; a condition that tells them apart may be missing. Equal entries are not always repeated. Where two headings read alike, the source gives them in different places.

Test system: Stat3-ER expressing A375 cells
Format: cell-based
Procedure: In order to understand Stat3's ability to affect cell proliferation and cell death, we have examined the profile of genes expressed upon Stat3 activation in A375 cells using oligonucleotide microarrays.
Briefly, microarray analysis was performed using HG U95A GeneChips™ (Affymetrix, Santa Clara, USA) essentially according to the manufacturer's instructions. […] RNA from three independent experiments was pooled and biotin-labeled cRNA probes were generated from each sample starting from 10 μg of total cellular RNA. The resulting biotinylated cRNAs were hybridized to the Affymetrix U95A oligonucleotide array containing more than 12,000 sequences and signals detected. Chip analysis was performed using the Affymetrix Microarray Suite v5 (target intensity 500 used for chip scaling) and GeneSpring 4.2.1 (Silicon Genetics). Changes in gene expression were assessed by looking for concordant changes between replicates using a signed Wilcoxon rank test (as recommended by Affymetrix).

oncostatin M [OSM]
expression change (fold): H. sapiens mRNA; cDNA DZFZp586N012: 1.5 and 1.6
expression change (fold): Absent in melanoma 2 (Avge of clones): 2.9
expression change (fold): Alpha-1-antichymotrypsin precursor (Avge of clones): 2.8
expression change (fold): Aquaporin 3 (Avge of clones): 4.1
expression change (fold): Brain-derived neurotrophic factor (Avge of clones): 4.8
expression change (fold): CCAAT/enhancer binding protein (C/EBP), delta (Avge of clones): 2.7
expression change (fold): Cathepsin L (Avge of clones): 2.8
expression change (fold): Cytokine receptor-like factor 1 (Avge of clones): 1.9
expression change (fold): Death-associated protein kinase 1 (Avge of clones): 5.2
expression change (fold): Ephrin A1 precursor (Avge of clones): 2.1
expression change (fold): Ets variant gene 6 (Avge of clones): 3.9
expression change (fold): Fibronectin (Avge of clones): 2.0
expression change (fold): Fibronectin 1, isoform 1 preproprotein (Avge of clones): 1.6
expression change (fold): Glycine dehydrogenase (decarboxylating, glycine decdarboxylase, glycine cleavage system protein P) (Avge of clones): 2.5
expression change (fold): I factor (complement) (Avge of clones): 2.3
expression change (fold): Insulin-like growth factor binding protein 3 (Avge of clones): 2.4
expression change (fold): Intercellular adhesion molecule 1 precursor (Avge of clones): 1.9
expression change (fold): Interferon induced transmembrane protein 1 (9-27) (Avge of clones): 1.4
expression change (fold): Interleukin 8 (Avge of clones): 0.5
expression change (fold): Jun B proto-oncogene (Avge of clones): 2.5
expression change (fold): KIAA0161 gene product (Avge of clones): 1.6
expression change (fold): KIAA0303 protein (Avge of clones): 3.5
expression change (fold): KIAA0500 protein (Avge of clones): 3.0
expression change (fold): Killer cell lectin-like receptor subfamily C, member 2 (Avge of clones): 2.7
expression change (fold): Killer cell lectin-like receptor subfamily C, member 3 isoform NKG2-E (Avge of clones): 3.6
expression change (fold): Kynureninase (L-kynurenine hydrolase) (Avge of clones): 2.2
expression change (fold): MHC class II transactivator (Avge of clones): 3.0
expression change (fold): MHC, class II, DQ alpha 1 precursor (Avge of clones): 2.4
expression change (fold): MHC, class II, DQ beta 1 (Avge of clones): 2.5
expression change (fold): Major vault protein (Avge of clones): 2.7
expression change (fold): Nicotinamide N-methyltransferase (Avge of clones): 2.4
expression change (fold): Niemann-Pick disease, type C1 (Avge of clones): 2.1
expression change (fold): Oncostatin M receptor (Avge of clones): 2.0
expression change (fold): Osteoprotegrin (Avge of clones): 2.9
expression change (fold): Prostatic acid phosphatase precursor (Avge of clones): 7.4
expression change (fold): Ras-induced senescence 1 (Avge of clones): 1.8
expression change (fold): Regenerating islet-derived 1 alpha (pancreatic stone protein, pancreatic thread protein) (Avge of clones): 3.0
expression change (fold): Regulator of G protein signalling 16 (Avge of clones): 2.9
expression change (fold): STAT induced STAT inhibitor 3 (Avge of clones): 10.7
expression change (fold): Secreted phosphoprotein 1 (osteopontin, bone sialoprotein 1, early T-lymphocyte activation 1) (Avge of clones): 7.5
expression change (fold): Serine (or cysteine) protease inhibitor, clade B (ovalbumin), member 3 (Avge of clones): 27.8
expression change (fold): Small inducible cytokine A2 (monocyte chemotactic protein 1) (Avge of clones): 1.2
expression change (fold): Solute carrier family 2 (facilitated glucose transporter), member 3 (Avge of clones): 2.3
expression change (fold): Stanniocalcin 1 (Avge of clones): 3.7
expression change (fold): Tyrosine phosphatase/TIGR = HG620-HT620 (Avge of clones): 1.2
expression change (fold): v-fos FBJ murine osteosarcoma viral gene homologue (Avge of clones): 3.7
expression change (fold): v-jun avian sarcoma virus 17 oncogene homologue (Avge of clones): 1.2
expression change (fold): v-maf musculoaponeurotic fibrosarcoma oncogene homologue (avian) (Avge of clones): 3.0
expression change (fold): Aquaporin 3 (Avge of clones, 2nd listing): 8.0
expression change (fold): Fibronectin 1, isoform 1 preproprotein (Avge of clones, 2nd listing): 1.5
expression change (fold): Insulin-like growth factor binding protein 3 (Avge of clones, 2nd listing): 2.0
expression change (fold): Interleukin 8 (Avge of clones, 2nd listing): 0.9
expression change (fold): Kynureninase (L-kynurenine hydrolase) (Avge of clones, 2nd listing): 1.5
expression change (fold): Oncostatin M receptor (Avge of clones, 2nd listing): 1.9
expression change (fold): Prostatic acid phosphatase precursor (Avge of clones, 2nd listing): 1.3
expression change (fold): Secreted phosphoprotein 1 (osteopontin, bone sialoprotein 1, early T-lymphocyte activation 1) (Avge of clones, 2nd listing): 4.6
expression change (fold): v-jun avian sarcoma virus 17 oncogene homologue (Avge of clones, 2nd listing): 1.5
expression change (fold): Kynureninase (L-kynurenine hydrolase) (Avge of clones, 3rd listing): 1.7
expression change (fold): Absent in melanoma 2 (Clone1): 2.7
expression change (fold): Alpha-1-antichymotrypsin precursor (Clone1): 3.1
expression change (fold): Aquaporin 3 (Clone1): 4.5
expression change (fold): Brain-derived neurotrophic factor (Clone1): 4.8
expression change (fold): CCAAT/enhancer binding protein (C/EBP), delta (Clone1): 3.9
expression change (fold): Cathepsin L (Clone1): 2.3
expression change (fold): Cytokine receptor-like factor 1 (Clone1): 3.0
expression change (fold): Death-associated protein kinase 1 (Clone1): 3.5
expression change (fold): Ephrin A1 precursor (Clone1): 1.3
expression change (fold): Ets variant gene 6 (Clone1): 3.9
expression change (fold): Fibronectin (Clone1): 0.9
expression change (fold): Fibronectin 1, isoform 1 preproprotein (Clone1): 1.2
expression change (fold): Glycine dehydrogenase (decarboxylating, glycine decdarboxylase, glycine cleavage system protein P) (Clone1): 2.5
expression change (fold): I factor (complement) (Clone1): 2.5
expression change (fold): Insulin-like growth factor binding protein 3 (Clone1): 2.6
expression change (fold): Intercellular adhesion molecule 1 precursor (Clone1): 1.7
expression change (fold): Interferon induced transmembrane protein 1 (9-27) (Clone1): 2.2
expression change (fold): Interleukin 8 (Clone1): 0.4
expression change (fold): Jun B proto-oncogene (Clone1): 2.7
expression change (fold): KIAA0161 gene product (Clone1): 1.5
expression change (fold): KIAA0303 protein (Clone1): 4.5
expression change (fold): KIAA0500 protein (Clone1): 2.3
expression change (fold): Killer cell lectin-like receptor subfamily C, member 2 (Clone1): 4.3
expression change (fold): Killer cell lectin-like receptor subfamily C, member 3 isoform NKG2-E (Clone1): 6.7
expression change (fold): Kynureninase (L-kynurenine hydrolase) (Clone1): 2.6
expression change (fold): MHC class II transactivator (Clone1): 3.4
expression change (fold): MHC, class II, DQ alpha 1 precursor (Clone1): 2.5
expression change (fold): MHC, class II, DQ beta 1 (Clone1): 2.4
expression change (fold): Major vault protein (Clone1): 2.9
expression change (fold): Nicotinamide N-methyltransferase (Clone1): 2.8
expression change (fold): Niemann-Pick disease, type C1 (Clone1): 1.7
expression change (fold): Oncostatin M receptor (Clone1): 1.9
expression change (fold): Osteoprotegrin (Clone1): 5.2
expression change (fold): Prostatic acid phosphatase precursor (Clone1): 4.5
expression change (fold): Ras-induced senescence 1 (Clone1): 1.8
expression change (fold): Regenerating islet-derived 1 alpha (pancreatic stone protein, pancreatic thread protein) (Clone1): 3.0
expression change (fold): Regulator of G protein signalling 16 (Clone1): 3.7
expression change (fold): STAT induced STAT inhibitor 3 (Clone1): 11.6
expression change (fold): Secreted phosphoprotein 1 (osteopontin, bone sialoprotein 1, early T-lymphocyte activation 1) (Clone1): 3.8
expression change (fold): Serine (or cysteine) protease inhibitor, clade B (ovalbumin), member 3 (Clone1): 28.8
expression change (fold): Small inducible cytokine A2 (monocyte chemotactic protein 1) (Clone1): 0.9
expression change (fold): Solute carrier family 2 (facilitated glucose transporter), member 3 (Clone1): 1.9
expression change (fold): Stanniocalcin 1 (Clone1): 2.8
expression change (fold): Tyrosine phosphatase/TIGR = HG620-HT620 (Clone1): 0.9
expression change (fold): v-fos FBJ murine osteosarcoma viral gene homologue (Clone1): 2.9
expression change (fold): v-jun avian sarcoma virus 17 oncogene homologue (Clone1): 1.4
expression change (fold): v-maf musculoaponeurotic fibrosarcoma oncogene homologue (avian) (Clone1): 2.5
expression change (fold): Aquaporin 3 (Clone1, 2nd listing): 9.2
expression change (fold): Fibronectin 1, isoform 1 preproprotein (Clone1, 2nd listing): 0.6
expression change (fold): Insulin-like growth factor binding protein 3 (Clone1, 2nd listing): 2.4
expression change (fold): Interleukin 8 (Clone1, 2nd listing): 1.2
expression change (fold): Kynureninase (L-kynurenine hydrolase) (Clone1, 2nd listing): 1.8
expression change (fold): Oncostatin M receptor (Clone1, 2nd listing): 1.9
expression change (fold): Prostatic acid phosphatase precursor (Clone1, 2nd listing): 1.0
expression change (fold): Secreted phosphoprotein 1 (osteopontin, bone sialoprotein 1, early T-lymphocyte activation 1) (Clone1, 2nd listing): 3.5
expression change (fold): v-jun avian sarcoma virus 17 oncogene homologue (Clone1, 2nd listing): 1.8
expression change (fold): Kynureninase (L-kynurenine hydrolase) (Clone1, 3rd listing): 1.9
expression change (fold): Absent in melanoma 2 (Clone2): 3.1
expression change (fold): Alpha-1-antichymotrypsin precursor (Clone2): 2.4
expression change (fold): Aquaporin 3 (Clone2): 3.8
expression change (fold): Brain-derived neurotrophic factor (Clone2): 4.7
expression change (fold): CCAAT/enhancer binding protein (C/EBP), delta (Clone2): 1.6
expression change (fold): Cathepsin L (Clone2): 3.4
expression change (fold): Cytokine receptor-like factor 1 (Clone2): 0.9
expression change (fold): Death-associated protein kinase 1 (Clone2): 6.9
expression change (fold): Ephrin A1 precursor (Clone2): 2.9
expression change (fold): Ets variant gene 6 (Clone2): 4.0
expression change (fold): Fibronectin (Clone2): 3.1
expression change (fold): Fibronectin 1, isoform 1 preproprotein (Clone2): 1.9
expression change (fold): Glycine dehydrogenase (decarboxylating, glycine decdarboxylase, glycine cleavage system protein P) (Clone2): 2.5
expression change (fold): I factor (complement) (Clone2): 2.2
expression change (fold): Insulin-like growth factor binding protein 3 (Clone2): 2.1
expression change (fold): Intercellular adhesion molecule 1 precursor (Clone2): 2.1
expression change (fold): Interferon induced transmembrane protein 1 (9-27) (Clone2): 0.6
expression change (fold): Interleukin 8 (Clone2): 0.6
expression change (fold): Jun B proto-oncogene (Clone2): 2.2
expression change (fold): KIAA0161 gene product (Clone2): 1.7
expression change (fold): KIAA0303 protein (Clone2): 2.4
expression change (fold): KIAA0500 protein (Clone2): 3.8
expression change (fold): Killer cell lectin-like receptor subfamily C, member 2 (Clone2): 1.0
expression change (fold): Killer cell lectin-like receptor subfamily C, member 3 isoform NKG2-E (Clone2): 0.4
expression change (fold): Kynureninase (L-kynurenine hydrolase) (Clone2): 1.7
expression change (fold): MHC class II transactivator (Clone2): 2.6
expression change (fold): MHC, class II, DQ alpha 1 precursor (Clone2): 2.3
expression change (fold): MHC, class II, DQ beta 1 (Clone2): 2.6
expression change (fold): Major vault protein (Clone2): 2.5
expression change (fold): Nicotinamide N-methyltransferase (Clone2): 1.9
expression change (fold): Niemann-Pick disease, type C1 (Clone2): 2.4
expression change (fold): Oncostatin M receptor (Clone2): 2.1
expression change (fold): Osteoprotegrin (Clone2): 0.7
expression change (fold): Prostatic acid phosphatase precursor (Clone2): 10.2
expression change (fold): Ras-induced senescence 1 (Clone2): 1.9
expression change (fold): Regenerating islet-derived 1 alpha (pancreatic stone protein, pancreatic thread protein) (Clone2): 3.0
expression change (fold): Regulator of G protein signalling 16 (Clone2): 2.1
expression change (fold): STAT induced STAT inhibitor 3 (Clone2): 9.7
expression change (fold): Secreted phosphoprotein 1 (osteopontin, bone sialoprotein 1, early T-lymphocyte activation 1) (Clone2): 11.3
expression change (fold): Serine (or cysteine) protease inhibitor, clade B (ovalbumin), member 3 (Clone2): 26.7
expression change (fold): Small inducible cytokine A2 (monocyte chemotactic protein 1) (Clone2): 1.5
expression change (fold): Solute carrier family 2 (facilitated glucose transporter), member 3 (Clone2): 2.6
expression change (fold): Stanniocalcin 1 (Clone2): 4.6
expression change (fold): Tyrosine phosphatase/TIGR = HG620-HT620 (Clone2): 1.6
expression change (fold): v-fos FBJ murine osteosarcoma viral gene homologue (Clone2): 4.6
expression change (fold): v-jun avian sarcoma virus 17 oncogene homologue (Clone2): 1.0
expression change (fold): v-maf musculoaponeurotic fibrosarcoma oncogene homologue (avian) (Clone2): 3.5
expression change (fold): Aquaporin 3 (Clone2, 2nd listing): 6.7
expression change (fold): Fibronectin 1, isoform 1 preproprotein (Clone2, 2nd listing): 2.3
expression change (fold): Insulin-like growth factor binding protein 3 (Clone2, 2nd listing): 1.7
expression change (fold): Interleukin 8 (Clone2, 2nd listing): 0.7
expression change (fold): Kynureninase (L-kynurenine hydrolase) (Clone2, 2nd listing): 1.3
expression change (fold): Oncostatin M receptor (Clone2, 2nd listing): 2.0
expression change (fold): Prostatic acid phosphatase precursor (Clone2, 2nd listing): 1.7
expression change (fold): Secreted phosphoprotein 1 (osteopontin, bone sialoprotein 1, early T-lymphocyte activation 1) (Clone2, 2nd listing): 5.7
expression change (fold): v-jun avian sarcoma virus 17 oncogene homologue (Clone2, 2nd listing): 1.1
expression change (fold): Kynureninase (L-kynurenine hydrolase) (Clone2, 3rd listing): 1.4
